Assays:
Assay type in all cases: functional, organism-based; call rule not given here
Ovis aries [1] = organism: Ovis aries; experiment: The concentration required to inhibit complement mediated hemolysis of sensitized sheep RBC
Ovis aries [2] = organism: Ovis aries; experiment: The concentration effective to cause 50% hemolysis with sensitized sheep erythrocytes in the absence of complement
Ovis aries [3] = organism: Ovis aries; experiment: The concentration required to inhibit complement mediated hemolysis of sensitized sheep RBC; not active
Ovis aries [4] = organism: Ovis aries; experiment: Concentration effective to cause 50% hemolysis with sensitized sheep erythrocytes in the absence of complement
Ovis aries [5] = organism: Ovis aries; experiment: Concentration required to inhibit complement mediated hemolysis of sensitized sheep RBC

SMILES | IC50 (Ovis aries [1]) [µM] | EC50 (Ovis aries [2]) [µM] | IC50 (Ovis aries [3]) | EC50 (Ovis aries [4]) [µM] | IC50 (Ovis aries [5]) [µM]
CC1(C)CC[C@]2(C(=O)O)CC[C@]3(C)C(=CC[C@@H]4[C@@]5(C)CC[C@H](O)C(C)(C)[C@@H]5CC[C@]43C)[C@@H]2C1 [OLEANOLIC_ACID] | 76.6 |  |  |  | 
CCOc1cccc(-c2nn[nH]n2)c1 | 631 | 2210 |  |  | 
CCOc1cccc(C(=O)O)c1 |  | 2530 | Not Active |  | 
CCOc1cccc(C=O)c1 | 1000 |  |  | > 4000 | 
O=Cc1cccc(Oc2ccccc2)c1 | 1390 | > 3.3 |  |  | 
COc1cccc(C=O)c1 |  | > 4410 |  |  | 919
COc1cccc(C(=O)O)c1 |  | 2960 | Not Active |  | 
COc1cccc(-c2nn[nH]n2)c1 | 1560 | > 3410 |  |  | 
C[C@H]1[C@H](C)CC[C@]2(C(=O)O)CC[C@]3(C)C(=CC[C@@H]4[C@@]5(C)CC[C@H](O)C(C)(C)[C@@H]5CC[C@]43C)[C@H]12 [URSOLIC ACID] | 54.7 |  |  |  | 
O=C(O)c1cccc(Oc2ccccc2)c1 [M-PHENOXYBENZOIC ACID FOR CIS-ISOMER] | 1400 | > 2800 |  |  | 
c1ccc(Oc2cccc(-c3nn[nH]n3)c2)cc1 | 798 | 954 |  |  | 

Reference: ChEMBL document CHEMBL1136673, “Synthesis of low molecular weight compounds with complement inhibition activity” (Bioorg Med Chem Lett, 2003)
